Measured values as given in patent publication US6737383B1, “Herbicidal oxadiazolidines” (priority 1999, dated 2004).

Columns and labels:
bedstraw = test: Test B pre/postemergence bedstraw; assay type: in vivo, Galium aparine
Method in brief: (§1)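 Response is a visual 0-to-10 score relative to untreated plants, where 0 means no effect and 10 means complete control, taken twelve to sixteen days after application. Treatments went onto soil at planting and onto foliage of 1- to 4-leaf plants, using a surfactant-containing non-phytotoxic solvent.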

blackgrass = test: Test B pre/postemergence blackgrass; assay type: in vivo, Alopecurus myosuroides
Method in brief: as §1

surinam grass = test: Test B pre/postemergence surinam grass; assay type: in vivo, Brachiaria decumbens
Method in brief: as §1

cocklebur = test: Test B pre/postemergence cocklebur; assay type: in vivo, Xanthium strumarium
Method in brief: as §1

corn = test: Test B pre/postemergence corn; assay type: in vivo, Zea mays
Method in brief: as §1

crabgrass = test: Test B pre/postemergence crabgrass; assay type: in vivo, Digitaria sanguinalis
Method in brief: as §1

giant foxtail = test: Test B pre/postemergence giant foxtail; assay type: in vivo, Setaria faberii
Method in brief: as §1

morningglory = test: Test B pre/postemergence morningglory; assay type: in vivo, Ipomoea hederacea
Method in brief: as §1

pigweed = test: Test B pre/postemergence pigweed; assay type: in vivo, Amaranthus retroflexus
Method in brief: as §1

rape = test: Test B pre/postemergence rape; assay type: in vivo, Brassica napus
Method in brief: as §1

soybean = test: Test B pre/postemergence soybean; assay type: in vivo, Glycine max
Method in brief: as §1

sugar beet = test: Test B pre/postemergence sugar beet; assay type: in vivo, Beta vulgaris
Method in brief: as §1

velvetleaf = test: Test B pre/postemergence velvetleaf; assay type: in vivo, Abutilon theophrasti
Method in brief: as §1

wheat = test: Test B pre/postemergence wheat; assay type: in vivo, Triticum aestivum
Method in brief: as §1

wild oat = test: Test B pre/postemergence wild oat; assay type: in vivo, Avena fatua
Method in brief: as §1

purple nutsedge = test: Test B pre/postemergence purple nutsedge; assay type: in vivo, Cyperus rotundus
Method in brief: as §1

[1] = Postemergence, Rate 62 g/ha, scale 0 to 10, 0 is no effect, 10 is complete control
[2] = Postemergence, Rate 125 g/ha, scale of 0 to 10 where 0 is no effect and 10 is complete control
[3] = Postemergence, Rate 500 g/ha, scale 0 (no effect) to 10 (complete control)
[4] = Preemergence, Rate 250 g/ha, scale 0 (no effect) to 10 (complete control)
[5] = Rate 62 g/ha, Preemergence, scale 0 to 10
[6] = Rate 125 g/ha, Preemergence, scale 0 to 10 (0 no effect, 10 complete control)
[7] = Rate 500 g/ha, Preemergence, scale 0 to 10 (0 no effect, 10 complete control)
[8] = Rate 250 g/ha, Postemergence, scale 0 to 10, 0 is no effect, 10 is complete control

Compound: C#CCn1c(=O)on(C(=O)N(c2ccc(F)cc2F)C(C)C)c1=O [Compound 764]
- Plant response rating, Bedstraw (bedstraw; [1]): 0
- Bedstraw plant response rating (bedstraw; [2]): 5
- Bedstraw plant response rating (bedstraw; [3]): 5
- Bedstraw plant response rating (bedstraw; [4]): 5
- Bedstraw plant response rating (bedstraw; [5]): 0
- Bedstraw plant response rating (bedstraw; [6]): 5
- Bedstraw plant response rating (bedstraw; [7]): 8
- Plant response rating, Blackgrass (blackgrass; [1]): 3
- Blackgrass plant response rating (blackgrass; [2]): 6
- Blackgrass plant response rating (blackgrass; [3]): 8
- Blackgrass plant response rating (blackgrass; [4]): 8
- Blackgrass plant response rating (blackgrass; [5]): 7
- Blackgrass plant response rating (blackgrass; [6]): 7
- Blackgrass plant response rating (blackgrass; [8]): 6
- Blackgrass plant response rating (blackgrass; [7]): 9
- Plant response rating, B. signalgrass (surinam grass; [1]): 0
- B. signalgrass plant response rating (surinam grass; [2]): 0
- B. signalgrass plant response rating (surinam grass; Preemergence, Rate 62 g/ha, scale of 0 to 10 where 0 is no effect and 10 is complete control): 8
- B. signalgrass plant response rating (surinam grass; [4]): 9
- B. signalgrass plant response rating (surinam grass; [6]): 7
- B. signalgrass plant response rating (surinam grass; [8]): 2
- B. signalgrass plant response rating (surinam grass; Rate 500 g/ha, Postemergence, scale 0 to 10, 0 is no effect, 10 is complete control): 3
- B. signalgrass plant response rating (surinam grass; [7]): 10
- Plant response rating, Cocklebur (cocklebur; [1]): 0
- Cocklebur plant response rating (cocklebur; [2]): 0
- Cocklebur plant response rating (cocklebur; [3]): 5
- Cocklebur plant response rating (cocklebur; [4]): 0
- Cocklebur plant response rating (cocklebur; [5]): 0
- Cocklebur plant response rating (cocklebur; [8]): 2
- Cocklebur plant response rating (cocklebur; [7]): 8
- Plant response rating, Corn (corn; [1]): 0
- Corn plant response rating (corn; [2]): 0
- Corn plant response rating (corn; [3]): 4
- Corn plant response rating (corn; [4]): 6
- Corn plant response rating (corn; [5]): 0
- Corn plant response rating (corn; [6]): 0
- Corn plant response rating (corn; [8]): 0
- Corn plant response rating (corn; [7]): 9
- Plant response rating, Crabgrass (crabgrass; [1]): 0
- Crabgrass plant response rating (crabgrass; [2]): 6
- Crabgrass plant response rating (crabgrass; [3]): 9
- Crabgrass plant response rating (crabgrass; [4]): 10
- Crabgrass plant response rating (crabgrass; [5]): 10
- Crabgrass plant response rating (crabgrass; [6]): 10
- Crabgrass plant response rating (crabgrass; [8]): 9
- Crabgrass plant response rating (crabgrass; [7]): 10
- Plant response rating, Giant foxtail (giant foxtail; [1]): 3
- Giant foxtail plant response rating (giant foxtail; [2]): 7
- Giant foxtail plant response rating (giant foxtail; [3]): 8
- Giant foxtail plant response rating (giant foxtail; [4]): 10
- Giant foxtail plant response rating (giant foxtail; [5]): 10
- Giant foxtail plant response rating (giant foxtail; [6]): 10
- Giant foxtail plant response rating (giant foxtail; [8]): 8
- Giant foxtail plant response rating (giant foxtail; [7]): 10
- Plant response rating, Morningglory (morningglory; [1]): 1
- Morningglory plant response rating (morningglory; [2]): 1
- Morningglory plant response rating (morningglory; [3]): 5
- Morningglory plant response rating (morningglory; [4]): 0
- Morningglory plant response rating (morningglory; [5]): 0
- Morningglory plant response rating (morningglory; [8]): 2
- Morningglory plant response rating (morningglory; [7]): 2
- Plant response rating, Redroot pigweed (pigweed; [1]): 0
- Redroot pigweed plant response rating (pigweed; [2]): 5
- Redroot pigweed plant response rating (pigweed; [3]): 7
- Redroot pigweed plant response rating (pigweed; [4]): 10
- Redroot pigweed plant response rating (pigweed; [5]): 9
- Redroot pigweed plant response rating (pigweed; [6]): 10
- Redroot pigweed plant response rating (pigweed; [8]): 7
- Redroot pigweed plant response rating (pigweed; [7]): 10
- Plant response rating, Rape (rape; [1]): 0
- Rape plant response rating (rape; [2]): 0
- Rape plant response rating (rape; [3]): 7
- Rape plant response rating (rape; [4]): 9
- Rape plant response rating (rape; [5]): 0
- Rape plant response rating (rape; [6]): 0
- Rape plant response rating (rape; [8]): 3
- Rape plant response rating (rape; [7]): 10
- Plant response rating, Soybean (soybean; [1]): 1
- Soybean plant response rating (soybean; [3]): 4
- Soybean plant response rating (soybean; [4]): 3
- Soybean plant response rating (soybean; [5]): 0
- Soybean plant response rating (soybean; [6]): 0
- Soybean plant response rating (soybean; [8]): 3
- Soybean plant response rating (soybean; [7]): 5
- Plant response rating, Sugarbeets (sugar beet; [1]): 0
- Sugarbeets plant response rating (sugar beet; [3]): 7
- Sugarbeets plant response rating (sugar beet; [4]): 5
- Sugarbeets plant response rating (sugar beet; [5]): 0
- Sugarbeets plant response rating (sugar beet; [6]): 0
- Sugarbeets plant response rating (sugar beet; [8]): 3
- Sugarbeets plant response rating (sugar beet; [7]): 8
- Plant response rating, Velvetleaf (velvetleaf; [1]): 0
- Velvetleaf plant response rating (velvetleaf; [3]): 4
- Velvetleaf plant response rating (velvetleaf; [4]): 5
- Velvetleaf plant response rating (velvetleaf; [5]): 3
- Velvetleaf plant response rating (velvetleaf; [6]): 5
- Velvetleaf plant response rating (velvetleaf; [8]): 4
- Velvetleaf plant response rating (velvetleaf; [7]): 8
- Plant response rating, Wheat (wheat; [1]): 0
- Wheat plant response rating (wheat; [5]): 0
- Wheat plant response rating (wheat; [6]): 3
- Wheat plant response rating (wheat; [8]): 7
- Wheat plant response rating (wheat; [7]): 7
- Plant response rating, Wild oats (wild oat; [1]): 0
- Wild oats plant response rating (wild oat; [3]): 3
- Wild oats plant response rating (wild oat; [4]): 6
- Wild oats plant response rating (wild oat; [5]): 0
- Wild oats plant response rating (wild oat; [6]): 3
- Wild oats plant response rating (wild oat; [8]): 2
- Wild oats plant response rating (wild oat; [7]): 7
- Plant response rating, Nutsedge (purple nutsedge; [1]): 0
- Nutsedge plant response rating (purple nutsedge; [2]): 0
- Nutsedge plant response rating (purple nutsedge; [3]): 3
- Nutsedge plant response rating (purple nutsedge; [4]): 0
- Nutsedge plant response rating (purple nutsedge; [5]): 0
- Nutsedge plant response rating (purple nutsedge; [6]): 0
- Nutsedge plant response rating (purple nutsedge; [8]): 0
- Nutsedge plant response rating (purple nutsedge; [7]): 4
